# Measurements reported in patent US9618501B2, “Three-dimensional fibrous scaffolds for cell culture” (University of South Florida, priority 2012, dated 2017).
# Where two headings read alike, the source gives them in different places.
# How the values were obtained:
# Type in all cases: cell-based
# LLC spheroids [1] = test: Drug efficacy on LLC spheroids grown on 3P scaffold (spheroid size and number)
# Description: Drug efficacy analysis using 3P scaffold: To assess the ability of the 3P scaffold to monitor therapeutic efficacy to treat tumors, LLC spheroids were treated with different concentrations of the PI3K pathway inhibitor Ly294002 (1.0 μM, 0.1 μM, and 0.01 μM) and spheroid viability was assessed over a time period of 24 hours to 96 hours.
# MCF-7 cells [2] = test: Dose dependent cytotoxic response of MCF-7 cells, monolayer vs 3P scaffold (calcein AM/ethidium live cell count); settings: for IC50: Homo sapiens, MCF7, 48 h, 48 hours of drug; for IC50 for 3P cultures relative to monolayer cultures: MCF7 cells, 3P scaffold vs monolayer
# Description: MCF cells (7×10^3) were cultured on monolayer and 3P scaffold for 7 days then treated with different concentration of LY294002 and U0126 for 48 hours. Cells were stained with calcein/am and ethydium bromide then counted. Mean percentage of live cells (+/−SEM) were plotted as a function of drug concentration on and represents 4 replicates in 3 separate experiments. Box data points indicate monolayer and diamond data points indicate 3P scaffold.
# To further explore the utility of the 3P scaffold as a tool to monitor chemotherapeutic prevention of EMT, MCF-7 breast cancer cells were treated with Doxorubicin and Ly294002 and U0126 inhibitors to prevent spheroid formation and examined for a differential dose-dependent response which was compared with response in monolayer 2D culture. […] The IC-50 of a drug is defined as the […] of a drug to inhibit biological or biochemical function.
# [3] = tested on: biopsy induced tumoroids (BITs); test: Chemosensitivity of biopsy induced tumoroids (BITs) from FNAs of implanted LLC1 mouse tumors on 3P scaffolds; settings: for IC50: Mus musculus, LLC1
# Description: FIG. 17 illustrates biopsy tumoroids (day 2) treated with 1 μM each of LY294002 or U0126 for 3 days. The average size of biopsy tumoroids on 3P scaffolds (n=10 controls, 55 LY294002 and 50 U0126) is shown.
# Culturing fine needle aspirates (FNAs) of implanted mouse tumors: LLC1 cells (5×10^5) were subcutaneously injected into the flanks of wild type C57BL/6 mice (National Cancer Institute). Tumor formation was monitored for 2 weeks after which tumor biopsies were collected by fine needle aspiration. Briefly, a 23-gauge needle was inserted into the tumor using a rotating motion and the tissue samples were flushed from the needle by attaching a syringe filled with tissue culture medium and expelling the contents into a sterile tube. This process was repeated twice. The three collected tumor samples were pooled and single cell suspensions were cultured on the scaffold.
# Chemosensitivity of tumor biopsies grown on 3P scaffolds: To determine if the 3P scaffold can be utilized to culture tumor biopsies, single-cell suspensions of FNAs of implanted mouse tumors were cultured on 3P scaffolds. […] In addition to tumor cells, BITs were examined for the presence of stromal cells that are typical of in vivo tumor microenvironment (TME) (Mallela et al., (2013) Stem Cells 31: 1321-1329) by immunostaining with antibodies to respective cell surface markers.
# To determine if the biopsy tumoroids cultured on 3P scaffolds can be utilized to assess drug sensitivity, FNA tumoroids were cultured in the presence or absence of the inhibitors, LY294002 and U0126.
# tumor cells = test: Doxorubicin sensitivity of tumor cells grown on 3PC scaffolds vs monolayer
# Description: It was also determined that PLGA naked scaffolds are biocompatible and show increased tumorigenesis potential. From these observations, one can conclude that these 3D matrices can be used as a model to study cancer.
# LLC spheroids [4] = test: EMT marker expression in fully formed LLC spheroids treated at day 4
# Description: (§1) To determine if treatment by these agents would deregulate EMT in fully formed spheroids, the same concentration of drugs were administered to LLC spheroids cultured at day 4.
# MCF-7 cells [5] = test: Inhibition of spheroid formation and EMT markers in MCF-7 cells on 3P scaffold
# Description: as §1
# [6] = 0.01 μM, 24 hours post treatment
# [7] = 0.01 μM, 96 hours post treatment
# [8] = 0.1 μM, 24 hours post treatment
# [9] = 1.0 μM, 24 hours post treatment
# [10] = MCF-7 on 3P scaffold, read-out: IC-50
# [11] = MCF-7 on monolayer, read-out: IC-50
compound,measurement,setting,value
O=c1cc(N2CCOCC2)oc2c(-c3ccccc3)cccc12 [LY294002],average decrease in spheroid size compared to untreated spheroids,LLC spheroids [1]; [6],17+/−12.5%
same,decrease in spheroid numbers,LLC spheroids [1]; [6],14.5+/−8.52%
same,decrease in spheroid numbers,"LLC spheroids [1]; 0.01 μM, 48 hours",40.3+/−2.44%
same,average decrease in spheroid size,"LLC spheroids [1]; 0.01 μM, 48 hours post treatment",28.9+/−9.3%
same,average decrease in spheroid size,LLC spheroids [1]; [7],63+/−5.9%
same,decrease in spheroid numbers,LLC spheroids [1]; [7],93.3+/−0.48%
same,average decrease in spheroid size compared to untreated spheroids,LLC spheroids [1]; [8],22.0+/−10.9%
same,decrease in spheroid numbers,LLC spheroids [1]; [8],26.8+/−4.38%
same,decrease in spheroid numbers,"LLC spheroids [1]; 0.1 μM, 48 hours",52.6+/−2.93%
same,average decrease in spheroid size,"LLC spheroids [1]; 0.1 μM, 48 hours post treatment",32.6+/−5.97%
same,average decrease in spheroid size compared to untreated spheroids,LLC spheroids [1]; [9],37.3+/−8.4%
same,decrease in spheroid numbers,LLC spheroids [1]; [9],37.4+/−3.8%
same,decrease in spheroid numbers,"LLC spheroids [1]; 1.0 μM, 48 hours",61.7+/−2.92%
same,average decrease in spheroid size,"LLC spheroids [1]; 1.0 μM, 48 hours post treatment",51.2+/−6.73%
same,IC50,MCF-7 cells [2]; [10],1.15 µM
same,IC50,MCF-7 cells [2]; [11],0.13 µM
same,IC50 for 3P cultures relative to monolayer cultures,MCF-7 cells [2],10 fold
same,IC50,"[3]; biopsy tumoroids (BITs) on 3P scaffold, read-out: IC50",> 1 µM
COc1cccc2c1C(=O)c1c(O)c3c(c(O)c1C2=O)C[C@@](O)(C(=O)CO)C[C@@H]3O[C@H]1C[C@H](N)[C@H](O)[C@H](C)O1 [doxorubicin],sensitivity of tumor cells compared to cells grown on monolayer,tumor cells,less sensitive
same,IC50,MCF-7 cells [2]; [10],12 µM
same,IC50,MCF-7 cells [2]; [11],0.6 µM
N#CC(=C(/N)Sc1ccccc1N)/C(C#N)=C(\N)Sc1ccccc1N [U0126],vimentin and E-cadherin expression (EMT inhibition),LLC spheroids [4],lack of vimentin expression and a concomitant expression of E-cadherin
same,spheroid formation and proliferation on 3P scaffolds,"MCF-7 cells [5]; MCF-7 treated after 24 hours of culture, observed on day 4",prevented spheroid formation and proliferation
same,vimentin and E-cadherin expression,MCF-7 cells [5]; cells on 3P scaffold treated after 24 hours of culture,down regulating vimentin while maintaining E-cadherin expression
same,IC50,MCF-7 cells [2]; MCF-7 on 3P scaffold,0.106 µM
same,IC50,MCF-7 cells [2]; MCF-7 on monolayer,0.0106 µM
same,IC50 for 3P cultures relative to monolayer cultures,MCF-7 cells [2],100 fold
same,growth of BITs,[3]; FNA tumoroids on 3P scaffold cultured with inhibitor,decreases in tumoroid size
same,IC50,[3],> 1 µM
